Laboratory results taken from publication PMC4774911, “Biochemical Screening of Five Protein Kinases from Plasmodium falciparum against 14,000 Cell-Active Compounds” (PLoS ONE, 2016).
pKd: −log10 of the molar value. Where “and” joins values, the source holds several entries; their conditions need not be identical. Equal entries are not always repeated.

What was measured:
Assay in all cases: biochemical
Set-up in all cases: endogenous in cells; host or cells: K562 cell extract; species or system K562 (extract); replicate k of n = 2 (each experiment ID is one independent experiment; two experiment IDs per compound)
Details in all cases: read-out: KDapp
ULK3 = target: T1, ULK3 (Homo sapiens, UniProt Q6PHR2)
T1 sequence (Q6PHR2 1-472): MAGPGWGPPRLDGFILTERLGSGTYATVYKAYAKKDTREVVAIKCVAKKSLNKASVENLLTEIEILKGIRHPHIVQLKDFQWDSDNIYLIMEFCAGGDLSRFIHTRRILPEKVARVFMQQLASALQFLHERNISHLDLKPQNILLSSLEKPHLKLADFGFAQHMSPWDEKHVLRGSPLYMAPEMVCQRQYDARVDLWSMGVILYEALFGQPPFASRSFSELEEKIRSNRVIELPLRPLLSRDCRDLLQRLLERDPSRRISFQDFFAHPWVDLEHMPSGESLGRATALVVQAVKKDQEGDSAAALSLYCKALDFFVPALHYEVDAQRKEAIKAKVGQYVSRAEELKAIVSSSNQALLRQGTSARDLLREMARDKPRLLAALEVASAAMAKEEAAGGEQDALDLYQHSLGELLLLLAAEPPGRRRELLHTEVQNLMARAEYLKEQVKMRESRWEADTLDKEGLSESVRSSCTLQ

IKBKE = target: T2, IKBKE (Homo sapiens, UniProt Q14164)
T2 sequence (Q14164 1-716): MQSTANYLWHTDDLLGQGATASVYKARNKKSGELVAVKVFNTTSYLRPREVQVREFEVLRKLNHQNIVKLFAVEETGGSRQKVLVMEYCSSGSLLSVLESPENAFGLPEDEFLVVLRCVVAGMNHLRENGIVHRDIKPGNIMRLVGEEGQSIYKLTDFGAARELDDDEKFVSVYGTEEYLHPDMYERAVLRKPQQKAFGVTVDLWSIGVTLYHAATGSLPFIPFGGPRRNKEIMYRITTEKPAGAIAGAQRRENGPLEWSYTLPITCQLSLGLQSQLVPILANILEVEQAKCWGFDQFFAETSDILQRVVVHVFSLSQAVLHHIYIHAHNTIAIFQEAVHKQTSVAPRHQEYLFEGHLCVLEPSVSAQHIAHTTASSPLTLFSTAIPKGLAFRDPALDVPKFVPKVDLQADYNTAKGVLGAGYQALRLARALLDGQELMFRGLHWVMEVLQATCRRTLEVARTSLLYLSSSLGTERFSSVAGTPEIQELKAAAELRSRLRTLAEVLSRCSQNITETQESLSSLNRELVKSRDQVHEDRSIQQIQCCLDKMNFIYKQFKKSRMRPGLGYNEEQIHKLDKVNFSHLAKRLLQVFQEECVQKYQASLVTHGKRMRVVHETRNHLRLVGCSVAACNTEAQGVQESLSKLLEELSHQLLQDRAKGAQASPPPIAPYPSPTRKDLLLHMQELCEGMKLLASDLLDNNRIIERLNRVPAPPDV

AXL = target: T3, AXL (Homo sapiens, UniProt P30530)
T3 sequence (P30530 1-894): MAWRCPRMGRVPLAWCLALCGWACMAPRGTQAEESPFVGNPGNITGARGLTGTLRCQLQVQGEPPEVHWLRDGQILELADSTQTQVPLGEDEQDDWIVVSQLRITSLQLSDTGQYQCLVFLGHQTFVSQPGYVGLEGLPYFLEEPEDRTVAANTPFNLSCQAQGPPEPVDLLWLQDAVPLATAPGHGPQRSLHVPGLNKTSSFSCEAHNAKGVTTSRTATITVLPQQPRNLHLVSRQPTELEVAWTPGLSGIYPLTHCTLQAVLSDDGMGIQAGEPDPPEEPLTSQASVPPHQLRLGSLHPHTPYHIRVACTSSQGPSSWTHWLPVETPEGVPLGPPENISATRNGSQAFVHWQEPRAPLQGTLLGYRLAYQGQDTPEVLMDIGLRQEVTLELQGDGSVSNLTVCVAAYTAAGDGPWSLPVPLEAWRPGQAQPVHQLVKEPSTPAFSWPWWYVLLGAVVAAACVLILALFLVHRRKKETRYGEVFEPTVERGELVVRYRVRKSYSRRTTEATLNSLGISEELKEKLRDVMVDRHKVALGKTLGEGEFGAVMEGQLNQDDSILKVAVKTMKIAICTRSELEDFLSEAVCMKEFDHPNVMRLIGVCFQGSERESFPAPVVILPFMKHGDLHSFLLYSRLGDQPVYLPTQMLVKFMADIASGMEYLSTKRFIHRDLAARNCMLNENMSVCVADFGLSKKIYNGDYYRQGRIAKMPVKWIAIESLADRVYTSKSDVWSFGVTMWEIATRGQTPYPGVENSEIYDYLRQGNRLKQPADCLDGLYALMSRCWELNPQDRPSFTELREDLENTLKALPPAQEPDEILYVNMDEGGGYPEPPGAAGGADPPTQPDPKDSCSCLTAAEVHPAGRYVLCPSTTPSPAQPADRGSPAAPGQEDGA

## CN1CCN(c2ccc(Nc3ncc(C#N)c(Nc4ccccc4C(N)=O)n3)cc2)CC1.Cl [TCMDC-134116]
ULK3
  pKd: 7.79 and 7.59
IKBKE
  pKd: 6.02
AXL
  pKd: 6.58 and 6.53
